Assay results published in patent US10836720B2, “Inhibitors of integrin alpha 5 beta 1 and methods of use” (The Regents of the University of California, priority 2016, dated 2020).

Tests used:
alpha5beta1 = alpha5beta1 (Homo sapiens (Human), UniProt P05556+P08648); test: Cell adhesion assay, alpha5beta1-mediated (colon carcinoma cell line SW480 adhering to fibronectin); type: cell-based; conditions: SW480 cells
Procedure: The blockade of integrin alpha 5 beta 1 was tested in vitro with human cell lines as well as in vivo with a mouse model of airway hyperresponsiveness.

alphavbeta1 = alphavbeta1 (Homo sapiens, UniProt G3HZ55+P06756); test: Cell adhesion assay, alphavbeta1-mediated (CHO cells transfected with human alphav adhering to the latency associated peptide of TGF-beta); type: cell-based; conditions: adhesion to LAP of TGF-beta
Chain of alphavbeta1 (G3HZ55 21-798 limits assumed): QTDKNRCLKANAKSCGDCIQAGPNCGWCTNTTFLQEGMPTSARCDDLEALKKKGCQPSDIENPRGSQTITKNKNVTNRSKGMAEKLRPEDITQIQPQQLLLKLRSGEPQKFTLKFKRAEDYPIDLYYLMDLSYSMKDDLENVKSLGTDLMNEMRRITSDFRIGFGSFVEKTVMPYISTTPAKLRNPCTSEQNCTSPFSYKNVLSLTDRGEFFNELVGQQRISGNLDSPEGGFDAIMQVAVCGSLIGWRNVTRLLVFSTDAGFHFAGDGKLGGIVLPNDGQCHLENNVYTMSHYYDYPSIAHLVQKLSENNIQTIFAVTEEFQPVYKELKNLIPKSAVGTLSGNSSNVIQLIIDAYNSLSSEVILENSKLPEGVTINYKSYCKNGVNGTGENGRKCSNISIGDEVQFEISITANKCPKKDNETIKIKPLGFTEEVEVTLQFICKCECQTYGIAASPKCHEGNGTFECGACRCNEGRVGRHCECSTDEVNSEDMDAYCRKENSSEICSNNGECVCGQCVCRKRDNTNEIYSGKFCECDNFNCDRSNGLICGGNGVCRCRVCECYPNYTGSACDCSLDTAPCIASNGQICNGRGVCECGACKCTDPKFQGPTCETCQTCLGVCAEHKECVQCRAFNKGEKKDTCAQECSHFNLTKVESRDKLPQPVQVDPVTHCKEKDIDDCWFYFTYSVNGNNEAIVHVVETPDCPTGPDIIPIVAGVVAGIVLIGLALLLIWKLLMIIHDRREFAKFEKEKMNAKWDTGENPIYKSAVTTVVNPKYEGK
Chain of alphavbeta1 (P06756 31-889 limits assumed): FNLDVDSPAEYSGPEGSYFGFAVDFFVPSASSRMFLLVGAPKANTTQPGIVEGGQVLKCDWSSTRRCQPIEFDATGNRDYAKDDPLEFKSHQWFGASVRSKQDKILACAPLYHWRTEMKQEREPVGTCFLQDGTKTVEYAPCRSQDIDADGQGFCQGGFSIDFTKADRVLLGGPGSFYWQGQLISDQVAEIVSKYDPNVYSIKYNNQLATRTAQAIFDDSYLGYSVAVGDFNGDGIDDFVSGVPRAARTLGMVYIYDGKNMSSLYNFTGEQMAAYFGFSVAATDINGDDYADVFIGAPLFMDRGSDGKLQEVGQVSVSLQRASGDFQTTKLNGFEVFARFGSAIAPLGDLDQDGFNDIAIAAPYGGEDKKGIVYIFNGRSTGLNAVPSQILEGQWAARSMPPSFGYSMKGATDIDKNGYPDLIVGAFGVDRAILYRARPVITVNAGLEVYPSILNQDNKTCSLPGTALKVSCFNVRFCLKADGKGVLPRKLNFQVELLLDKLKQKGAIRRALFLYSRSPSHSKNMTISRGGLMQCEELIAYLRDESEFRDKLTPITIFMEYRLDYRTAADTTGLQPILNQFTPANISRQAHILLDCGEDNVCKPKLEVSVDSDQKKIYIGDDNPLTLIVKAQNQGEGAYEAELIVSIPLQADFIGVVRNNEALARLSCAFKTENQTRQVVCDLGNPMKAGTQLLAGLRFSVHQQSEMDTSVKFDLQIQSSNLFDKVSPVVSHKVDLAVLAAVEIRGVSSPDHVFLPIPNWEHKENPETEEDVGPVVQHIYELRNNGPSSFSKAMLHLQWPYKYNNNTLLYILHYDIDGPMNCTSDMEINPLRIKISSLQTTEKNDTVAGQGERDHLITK
Chain of alphavbeta1 (P06756 891-1048 limits assumed): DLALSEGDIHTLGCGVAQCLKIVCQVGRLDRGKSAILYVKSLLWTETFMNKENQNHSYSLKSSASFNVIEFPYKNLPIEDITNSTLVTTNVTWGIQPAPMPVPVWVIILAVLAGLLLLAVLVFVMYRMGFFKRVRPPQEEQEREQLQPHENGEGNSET
Procedure: The blockade of integrin alpha 5 beta 1 provides a novel target for the treatment of asthma. […] The intracellular actin-myosin cross-bridging pathway serves as a useful target. Modulating the interactions of the cell and the extracellular matrix impairs the ability of the smooth muscle to transmit tension effectively. The blockade of integrin alpha 5 beta 1 was tested in vitro with human cell lines as well as in vivo with a mouse model of airway hyperresponsiveness. Novel compounds as described herein, and identified in Table 1, have been synthesized and tested in vitro for their ability to inhibit cell adhesion mediated by either alpha5beta1 (adhesion of the colon carcinoma cell line SW480 to fibronectin, a response that is entirely dependent on binding of alpha5beta1 to fibronectin), or alphavbeta1 (adhesion of Chinese Hamster Ovary cells transfected with human alphav to the latency associated peptide of transforming growth factor beta, a response that is entirely dependent on binding of alphavbeta1 to LAP).

Chain of alpha5beta1 (P08648 42-894): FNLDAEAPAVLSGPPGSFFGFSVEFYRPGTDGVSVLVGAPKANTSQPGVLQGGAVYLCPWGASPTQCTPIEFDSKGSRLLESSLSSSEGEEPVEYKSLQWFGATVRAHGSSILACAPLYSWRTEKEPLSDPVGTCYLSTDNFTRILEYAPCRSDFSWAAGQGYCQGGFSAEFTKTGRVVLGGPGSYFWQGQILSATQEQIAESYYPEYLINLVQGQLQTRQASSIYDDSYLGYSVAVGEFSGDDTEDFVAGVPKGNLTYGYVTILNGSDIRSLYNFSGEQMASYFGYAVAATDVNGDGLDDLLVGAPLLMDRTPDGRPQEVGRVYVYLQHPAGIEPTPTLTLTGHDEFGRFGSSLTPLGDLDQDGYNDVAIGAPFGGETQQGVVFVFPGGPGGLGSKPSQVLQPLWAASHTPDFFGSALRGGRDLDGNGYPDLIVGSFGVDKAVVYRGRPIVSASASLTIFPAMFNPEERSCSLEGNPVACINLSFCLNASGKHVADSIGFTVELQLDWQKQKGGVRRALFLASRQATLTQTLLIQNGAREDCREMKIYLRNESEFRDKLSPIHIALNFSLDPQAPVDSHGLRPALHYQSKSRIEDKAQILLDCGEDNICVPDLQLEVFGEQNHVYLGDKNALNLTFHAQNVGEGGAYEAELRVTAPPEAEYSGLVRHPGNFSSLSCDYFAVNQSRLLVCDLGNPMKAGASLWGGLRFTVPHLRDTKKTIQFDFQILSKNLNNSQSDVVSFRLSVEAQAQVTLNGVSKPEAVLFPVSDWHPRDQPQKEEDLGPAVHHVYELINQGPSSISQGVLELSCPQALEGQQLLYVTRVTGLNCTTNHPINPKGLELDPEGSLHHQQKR
Chain of alpha5beta1 (P08648 895-1049): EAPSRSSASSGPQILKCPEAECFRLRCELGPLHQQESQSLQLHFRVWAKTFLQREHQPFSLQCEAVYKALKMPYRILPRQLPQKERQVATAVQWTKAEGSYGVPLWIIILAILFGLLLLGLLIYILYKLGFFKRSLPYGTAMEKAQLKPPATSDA
Chain of alpha5beta1 (P05556 21-798): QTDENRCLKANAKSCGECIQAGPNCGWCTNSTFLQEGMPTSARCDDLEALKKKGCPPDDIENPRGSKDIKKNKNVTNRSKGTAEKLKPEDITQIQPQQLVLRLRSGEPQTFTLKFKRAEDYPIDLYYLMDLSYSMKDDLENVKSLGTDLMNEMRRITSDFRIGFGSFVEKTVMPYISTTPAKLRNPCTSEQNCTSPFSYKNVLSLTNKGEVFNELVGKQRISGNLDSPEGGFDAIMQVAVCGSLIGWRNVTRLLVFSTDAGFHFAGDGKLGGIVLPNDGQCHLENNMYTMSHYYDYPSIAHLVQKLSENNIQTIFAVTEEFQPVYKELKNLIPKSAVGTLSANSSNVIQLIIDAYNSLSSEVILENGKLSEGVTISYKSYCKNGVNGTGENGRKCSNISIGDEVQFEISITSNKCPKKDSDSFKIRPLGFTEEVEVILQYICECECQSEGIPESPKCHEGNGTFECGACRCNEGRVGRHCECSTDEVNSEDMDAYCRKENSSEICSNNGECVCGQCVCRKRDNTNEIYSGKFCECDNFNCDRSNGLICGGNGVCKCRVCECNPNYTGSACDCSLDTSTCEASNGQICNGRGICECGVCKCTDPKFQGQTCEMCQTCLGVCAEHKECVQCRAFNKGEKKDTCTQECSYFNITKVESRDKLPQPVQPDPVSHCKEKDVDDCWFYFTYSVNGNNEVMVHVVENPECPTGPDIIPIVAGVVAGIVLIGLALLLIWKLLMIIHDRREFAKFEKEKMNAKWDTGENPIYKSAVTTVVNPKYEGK

Row | SMILES | IC50 (alpha5beta1) | IC50 (alphavbeta1)
1 | N=C(N)NCCCCNC(=O)NC[C@H](NC(=O)[C@@H]1CCCN1S(=O)(=O)c1ccccc1)C(=O)O [HIJ-1016, (S)-3-(3-(4-guanidinobutyl)ureido)-2-((S)-1-(phenylsulfonyl)pyrrolidine-2-carboxamido)propanoic acid] | 0.1 to 10 µM | < 0.1 µM
2 | N=C(N)NCCCCCNC(=O)NC[C@H](NC(=O)[C@@H]1CCCN1S(=O)(=O)c1ccccc1)C(=O)O [HIJ-1017, (S)-3-(3-(5-guanidinopentyl)ureido)-2-((S)-1-(phenylsulfonyl)pyrrolidine-2-carboxamido)propanoic acid] | 0.1 to 10 µM | < 0.1 µM
3 | N=C(N)NCCCCCCNC(=O)NC[C@H](NC(=O)[C@@H]1CCCN1S(=O)(=O)c1ccccc1)C(=O)O [HIJ-1018, (S)-3-(3-(6-guanidinohexyl)ureido)-2-((S)-1-(phenylsulfonyl)pyrrolidine-2-carboxamido)propanoic acid] | 0.1 to 10 µM | < 0.1 µM
4 | N=C(N)NCCCCCC(=O)NC[C@H](NC(=O)[C@@H]1CCCN1S(=O)(=O)c1ccccc1)C(=O)O [HIJ-1083, (S)-3-(6-guanidinohexanamido)-2-((S)-1-(phenylsulfonyl)pyrrolidine-2-carboxamido)propanoic acid] | 0.1 to 10 µM | 0.1 to 10 µM
5 | N=C(N)NCCCCC(=O)N[C@@H](CCCCNC(=S)Nc1ccc(C2c3ccc(O)cc3OC3=CC(=O)C=CC32)c(C(=O)O)c1)C(=O)NC[C@H](NC(=O)[C@@H]1CCCN1S(=O)(=O)c1ccccc1)C(=O)O (stereo partly drawn) [HIJ-1216, 5-(3-((S)-6-(((S)-2-carboxy-2-((S)-1-(phenylsulfonyl)pyrrolidine-2-carboxamido)ethyl)amino)-5-(5-guanidinopentanamido)-6-oxohexyl)thioureido)-2-(6-hydroxy-3-oxo-9,9a-dihydro-3H-xanthen-9-yl)benzoic acid] | > 10 µM | > 10 µM

The next lines start with results.

Row | IC50 (alpha5beta1) | SMILES | IC50 (alphavbeta1)
6 | 0.1 to 10 µM | O=C(CNC(=O)c1cccc(Nc2ccccn2)c1)NC[C@H](NC(=O)[C@@H]1CCCN1S(=O)(=O)c1ccccc1)C(=O)O [HIJ-1093] | 0.1 to 10 µM
7 | < 0.1 µM | N=C(N)Nc1cccc(C(=O)NCC(=O)NC[C@H](NC(=O)[C@@H]2CCCN2S(=O)(=O)c2ccccc2)C(=O)O)c1 [HIJ-1094, (S)-3-(2-(3-guanidinobenzamido)acetamido)-2-((S)-1-(phenylsulfonyl)pyrrolidine-2-carboxamido)propanoic acid] | < 0.1 µM
8 | < 0.1 µM | N=C(N)Nc1cccc(C(=O)NNC(=O)NC[C@H](NC(=O)[C@@H]2CCCN2S(=O)(=O)c2ccccc2)C(=O)O)c1 [HIJ-1099, (S)-3-(2-(3-guanidinobenzoyl)hydrazine-1-carboxamido)-2-((S)-1-(phenylsulfonyl)pyrrolidine-2-carboxamido)propanoic acid] | 0.1 to 10 µM
9 | < 0.1 µM | N=C(N)Nc1cc(NC(=O)CCCN)cc(C(=O)NCC(=O)NC[C@H](NC(=O)[C@@H]2CCCN2S(=O)(=O)c2ccccc2)C(=O)O)c1 [HIJ-1437, (S)-3-(2-(3-(4-aminobutanamido)-5-guanidinobenzamido)acetamido)-2-((S)-1-(phenylsulfonyl)pyrrolidine-2-carboxamido)propanoic acid] | 
10 | < 0.1 µM | N=C(N)Nc1cc(NC(=O)CCCNC(=O)C23CC4CC(CC(C4)C2)C3)cc(C(=O)NCC(=O)NC[C@H](NC(=O)[C@@H]2CCCN2S(=O)(=O)c2ccccc2)C(=O)O)c1 [HIJ-1483, (2S)-3-(2-(3-(4-((1s,3s)-adamantane-1-carboxamido)butanamido)-5-guanidinobenzamido)acetamido)-2-((S)-1-(phenylsulfonyl)pyrrolidine-2-carboxamido)propanoic acid] | 
